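Dose response: 5 concentrations. Exposure: 48 h. Format: 96-well plates. Endpoint: linear interpolation; highest concentration if not reached. At the TGI there is no net growth.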
Columns and labels:
Experiment in all cases: NCI anticancer screen, dose series, 48 h
SNB-19 CNS = system: SNB-19 CNS
SW-620 colon = system: SW-620 colon
DU-145 prostate = system: DU-145 prostate
SR leukemia = system: SR leukemia
SK-MEL-2 melanoma = system: SK-MEL-2 melanoma
OVCAR-5 ovarian = system: OVCAR-5 ovarian
HL-60(TB) leukemia = system: HL-60(TB) leukemia
M14 melanoma = system: M14 melanoma
UACC-62 melanoma = system: UACC-62 melanoma
OVCAR-4 ovarian = system: OVCAR-4 ovarian
NCI-H226 lung = system: NCI-H226 lung
MDA-MB-231 breast = system: MDA-MB-231 breast
SK-MEL-5 melanoma = system: SK-MEL-5 melanoma
RPMI-8226 leukemia = system: RPMI-8226 leukemia
NCI-H522 lung = system: NCI-H522 lung
K-562 leukemia = system: K-562 leukemia
MDA-MB-435 = system: MDA-MB-435
HS 578T breast = system: HS 578T breast
KM12 colon = system: KM12 colon
MCF7 breast = system: MCF7 breast
NCI-H460 lung = system: NCI-H460 lung
U251 CNS = system: U251 CNS
SF-539 CNS = system: SF-539 CNS
A498 renal = system: A498 renal
PC-3 prostate = system: PC-3 prostate
MOLT-4 leukemia = system: MOLT-4 leukemia
TK-10 renal = system: TK-10 renal
COLO 205 colon = system: COLO 205 colon
MDA-N = system: MDA-N
SN12C renal = system: SN12C renal
SK-MEL-28 melanoma = system: SK-MEL-28 melanoma
SK-OV-3 ovarian = system: SK-OV-3 ovarian
HOP-92 NSCLC = system: HOP-92 NSCLC
ACHN renal = system: ACHN renal
EKVX NSCLC = system: EKVX NSCLC
MALME-3M melanoma = system: MALME-3M melanoma
HT29 colon = system: HT29 colon
BT-549 breast = system: BT-549 breast
RXF 393 renal = system: RXF 393 renal
OVCAR-3 ovarian = system: OVCAR-3 ovarian
OVCAR-8 ovarian = system: OVCAR-8 ovarian
HCT-116 colon = system: HCT-116 colon
NCI/ADR-RES ovarian = system: NCI/ADR-RES ovarian
IGROV1 ovarian = system: IGROV1 ovarian
HCT-15 colon = system: HCT-15 colon
HCC-2998 colon = system: HCC-2998 colon
LOX IMVI melanoma = system: LOX IMVI melanoma
UACC-257 melanoma = system: UACC-257 melanoma
SNB-75 CNS = system: SNB-75 CNS
SF-295 CNS = system: SF-295 CNS
SF-268 CNS = system: SF-268 CNS
CAKI-1 renal = system: CAKI-1 renal
T-47D breast = system: T-47D breast
A549 NSCLC = system: A549 NSCLC
HOP-62 NSCLC = system: HOP-62 NSCLC
NCI-H23 lung = system: NCI-H23 lung
786-0 renal = system: 786-0 renal
UO-31 renal = system: UO-31 renal
CCRF-CEM leukemia = system: CCRF-CEM leukemia

Compound: O=c1c2ccccc2[se]n1-c1cccnc1
- TGI (SNB-19 CNS): > 100 µM
- TGI (SW-620 colon): 83.3 µM
- TGI (DU-145 prostate): 34.6 µM
- TGI (SR leukemia): > 100 µM
- TGI (SK-MEL-2 melanoma): 47.9 µM
- TGI (OVCAR-5 ovarian): > 100 µM
- TGI (HL-60(TB) leukemia): 91.5 µM
- TGI (M14 melanoma): 83.7 µM
- TGI (UACC-62 melanoma): 37.1 µM
- TGI (OVCAR-4 ovarian): > 100 µM
- TGI (NCI-H226 lung): > 100 µM
- TGI (MDA-MB-231 breast): 66.6 µM
- TGI (SK-MEL-5 melanoma): 26.7 µM
- TGI (RPMI-8226 leukemia): 86.9 µM
- TGI (NCI-H522 lung): 55.4 µM
- TGI (K-562 leukemia): > 100 µM
- TGI (MDA-MB-435): 46.4 µM
- TGI (HS 578T breast): 42.1 µM
- TGI (KM12 colon): > 100 µM
- TGI (MCF7 breast): 80.6 µM
- TGI (NCI-H460 lung): > 100 µM
- TGI (U251 CNS): 76 µM
- TGI (SF-539 CNS): 56.5 µM
- TGI (A498 renal): 61.9 µM
- TGI (PC-3 prostate): 48.6 µM
- TGI (MOLT-4 leukemia): > 100 µM
- TGI (TK-10 renal): 50.1 µM
- TGI (COLO 205 colon): 45.1 µM
- TGI (MDA-N): 52.9 µM
- TGI (SN12C renal): 99.4 µM
- TGI (SK-MEL-28 melanoma): 81 µM
- TGI (SK-OV-3 ovarian): > 100 µM
- TGI (HOP-92 NSCLC): 36.1 µM
- TGI (ACHN renal): 88.1 µM
- TGI (EKVX NSCLC): > 100 µM
- TGI (MALME-3M melanoma): 50.7 µM
- TGI (HT29 colon): > 100 µM
- TGI (BT-549 breast): 84.6 µM
- TGI (RXF 393 renal): 69.2 µM
- TGI (OVCAR-3 ovarian): > 100 µM
- TGI (OVCAR-8 ovarian): 69.5 µM
- TGI (HCT-116 colon): > 100 µM
- TGI (NCI/ADR-RES ovarian): > 100 µM
- TGI (IGROV1 ovarian): 46.7 µM
- TGI (HCT-15 colon): 52.8 µM
- TGI (HCC-2998 colon): 33.8 µM
- TGI (LOX IMVI melanoma): 56.8 µM
- TGI (UACC-257 melanoma): 57.7 µM
- TGI (SNB-75 CNS): 43.8 µM
- TGI (SF-295 CNS): > 100 µM
- TGI (SF-268 CNS): 70.6 µM
- TGI (CAKI-1 renal): > 100 µM
- TGI (T-47D breast): 57.3 µM
- TGI (A549 NSCLC): > 100 µM
- TGI (HOP-62 NSCLC): 71 µM
- TGI (NCI-H23 lung): 53.2 µM
- TGI (786-0 renal): 87.4 µM
- TGI (UO-31 renal): 93.7 µM

Compound: CN(C)Cc1cc(C(=O)/C=C/c2ccc(Cl)cc2)cc(CN(C)C)c1O
- TGI (SNB-19 CNS): 24.1 µM
- TGI (SW-620 colon): 20.5 µM
- TGI (DU-145 prostate): 24.4 µM
- TGI (SR leukemia): 45.7 µM
- TGI (OVCAR-5 ovarian): 54.5 µM
- TGI (HL-60(TB) leukemia): 22.9 µM
- TGI (NCI-H226 lung): 49.8 µM
- TGI (MDA-MB-231 breast): 23.5 µM
- TGI (SK-MEL-5 melanoma): 27.6 µM
- TGI (RPMI-8226 leukemia): 42.6 µM
- TGI (NCI-H522 lung): 10.8 µM
- TGI (K-562 leukemia): 21.4 µM
- TGI (CCRF-CEM leukemia): 94.2 µM
- TGI (MDA-MB-435): 26.5 µM
- TGI (HS 578T breast): 49.3 µM
- TGI (KM12 colon): 19.6 µM
- TGI (MCF7 breast): 39.6 µM
- TGI (NCI-H460 lung): 21.8 µM
- TGI (U251 CNS): 28 µM
- TGI (SF-539 CNS): 38.7 µM
- TGI (A498 renal): 27.7 µM
- TGI (PC-3 prostate): 24.7 µM
- TGI (MOLT-4 leukemia): 49.9 µM
- TGI (TK-10 renal): 39 µM
- TGI (COLO 205 colon): 10.7 µM
- TGI (MDA-N): 25.3 µM
- TGI (SN12C renal): 28.1 µM
- TGI (SK-MEL-28 melanoma): 26.4 µM
- TGI (ACHN renal): 16.1 µM
- TGI (EKVX NSCLC): 38.8 µM
- TGI (MALME-3M melanoma): 24.8 µM
- TGI (HT29 colon): 18.6 µM
- TGI (BT-549 breast): 11.3 µM
- TGI (RXF 393 renal): 30.3 µM
- TGI (OVCAR-3 ovarian): 10.8 µM
- TGI (OVCAR-8 ovarian): 51.3 µM
- TGI (HCT-116 colon): 26.5 µM
- TGI (NCI/ADR-RES ovarian): 54.2 µM
- TGI (IGROV1 ovarian): 29 µM
- TGI (HCT-15 colon): 54.4 µM
- TGI (HCC-2998 colon): 34.1 µM
- TGI (LOX IMVI melanoma): 15.3 µM
- TGI (UACC-257 melanoma): 29.2 µM
- TGI (SNB-75 CNS): 44.4 µM
- TGI (SF-295 CNS): 26 µM
- TGI (SF-268 CNS): 71.1 µM
- TGI (CAKI-1 renal): 20 µM
- TGI (T-47D breast): > 100 µM
- TGI (A549 NSCLC): 28.7 µM
- TGI (HOP-62 NSCLC): 15.8 µM
- TGI (NCI-H23 lung): 39.4 µM
- TGI (786-0 renal): 20.2 µM
- TGI (UO-31 renal): 19.9 µM

Reference: PubChem BioAssay (NCI)
